SMILES strings stand for the structures. pIC50: −log10 of the molar value.

The values that follow come from BindingDB's records for doi:10.1016/j.bmc.2019.02.015 (2019).

Test [1] is described as follows: Inhibition of mouse GAT-2 expressed in HEK293 cells assessed as decrease in [3H]GABA uptake preincubated for 25 mins followed by [3H]GABA addition and measured after 10 mins by scintillation counting analysis.
Test [2] is described as follows: Inhibition of mouse GAT-3 expressed in HEK293 cells assessed as decrease in [3H]GABA uptake preincubated for 25 mins followed by [3H]GABA addition and measured after 4 mins by scintillation counting analysis.

As to `O=C(O)C1CCCN(CCON=Cc2cc(F)ccc2-c2ccc(Cl)cc2Cl)C1` (stereo unspecified), the pIC50 (in general, the negative decadic logarithm of the IC50, by convention in mol/L) in test [1] is 4.75.

Turning to `O=C(O)C1CCCN(CCON=Cc2sccc2-c2ccc(Cl)cc2Cl)C1` (stereo unspecified), the results for the negative-log IC50 (pIC50) in test [2] and in test [1] were 4.04 and 4.42, respectively.

Regarding `O=C(O)C1CCCN(CCON=Cc2ccccc2-c2ccc(Cl)cc2Cl)C1` (stereo unspecified), the negative logarithm of the IC50 (pIC50) in test [1] is 4.34. As to `O=C(O)[C@@H]1CCCN(CCON=Cc2ccccc2-c2ccc(Cl)cc2Cl)C1`, the pIC50 in test [2] was 4.24; in test [1], 4.37.
